Data published in paper PMC5355322, “Enhancement of the bioavailability of a novel anticancer compound (acetyltanshinone IIA) by encapsulation within mPEG-PLGA nanoparticles: a study of formulation optimization, toxicity, and pharmacokinetics” (Oncotarget, 2017).
Where two headings read alike, the source gives them in different places.

Assays:
Drug release by dialysis = format: physicochemical; conditions: after 22 h, water with 1% SDS, 37°C
Procedure: The release of ATA from ATA NPs was investigated using dialysis and compared with the release of free ATA in solution [38–41]. Free ATA, or ATA NPs containing an equal amount of ATA, was mixed with release medium (6 mL ultra-pure water with 1% SDS) and placed in a dialysis sack (MWCO 12,000, Sigma). The pocket was then immersed in release medium (50 mL) with gentle stirring at 37°C. Samples of medium from outside of the pocket (2 mL) were taken at the designated time intervals for analysis, and an equal volume of fresh release medium was replenished. The amount of released drug was determined by the RP-HPLC method described in the section “Pharmacokinetics of ATA NPs in rats” below. The similarity of release profiles between the free ATA and ATA NPs were evaluated by the similarity factor (f2) shown below: f2=50log {[1+1/n∑t=1n(Rt−Tt)^2]^−0.5×100}
where n is the number of the time points, Rt is the release value of ATA NPs at time t, and Tt is the release value of free ATA.

[1] = test system: MCF-7 breast cancer cells; assay: MTT cell viability assay, MCF-7; format: cell-based; conditions: for reduction of viability of MCF-7 cells: 10 μM and 20 μM; for IC50: Homo sapiens, MCF7
Procedure: (§1) Meanwhile, human umbilical vein endothelial cells (HUVEC) were used to determine the general toxicity of ATA NPs on non-cancerous cells. Cells were treated with free ATA or ATA NPs at six concentrations: 0.625, 1.25, 2.5, 5, 10, and 20 μM for 24, 48, and 72 h. Cell viability was determined by the MTT assay and the experiment was conducted in triplicate.
(§2) The MTT reduction ability was determined as an index of the metabolic viability, in particular mitochondrial function, of the cells. Briefly, MCF-7 cells or HUVEC were seeded in 96-well plates and allowed to grow overnight. Free ATA (dissolved in DMSO, diluted with DMEM), ATA NPs, or blank NPs were added at different concentrations and the cells were incubated for 24, 48, and 72 h. MTT solution (10 μL; 5 mg/mL) was added into each well for 4 h. One hundred microliters of 1% SDS (containing 0.1% concentrated hydrochloric acid) was then added in each well to dissolve the formazan crystals. After 8 h, the absorbance of solubilized MTT formazan products were measured at 595 nm, and the cell viability was calculated from the OD value of the test sample and the vehicle control (untreated cells) using the following equation: cell viability (%) = ODtest sample /ODvehicle control × 100. The data obtained in triplicate from three independent experiments were presented as the mean ± SD.

[2] = test system: human umbilical vein endothelial cells (HUVEC); assay: MTT cell viability assay, HUVEC; format: cell-based; conditions: for IC50: Homo sapiens, HUVEC
Procedure: as §1, §2

zebrafish larvae = assay: Heart rate of zebrafish larvae; format: in vivo; conditions: 5 μM, 96 hpf; normal fish larvae 160 bpm
Procedure: (§3) Various concentrations of the free and nanoparticle forms of ATA were added to zebrafish embryos at four hours post fertilization (hpf).
The temperature of incubator was maintained at 28.5°C to ensure the optimal development of the embryos. Throughout the experiment, incubation solutions with freshly added ATA were replaced daily. Images of the zebrafish were captured in order to document any morphological changes. The heart rate was also recorded as described previously [44–47]. Twenty zebrafish were used in each experimental group and the zebrafish experiments were conducted at least four times.

[3] = Pharmacokinetics in rats after single intravenous administration (RP-HPLC); format: in vivo, rat; conditions: for half-life: rat, whole blood, 8 mg/kg
Procedure: The pharmacokinetic parameters of ATA were determined using two-chamber model and calculated using Excel PKsolver. According to the requirements for the selection of pharmacokinetic calculation model, the values of Akaike's information criterion and residual sum of squares (Re) were minimized, while the value of the determinate coefficient (r) was maximized. The mean retention time was calculated by statistical moment analysis.
Free ATA was suspended in a solution of PEG300: Ethanol: Tween 80 (60:25:15, v:v:v). […] At different time points (15 min, 30 min, 1, 2, 3, 4, 5, 6, 8, and 24 h), blood samples (0.3 mL) were collected from the suborbital vein and put into heparinized tubes. The blood samples were centrifuged at 3,000 rpm at 4°C for 10 min to obtain plasma. Then, the samples were pretreated and injected into RP-HPLC for detection. Microsoft Excel PKSolver was used to analyze the pharmacokinetic data. All animal studies were done in accordance with the protocol of ARF SBS NIE A-0146 AZ approved by the Institutional Animal Care and Use Committee, Nanyang Technological University, Singapore.
Before the samples were injected into the chromatograph, they were subjected to protein denaturation and precipitation. Briefly, acetonitrile (700 μL) was added to each 300 μL sample to precipitate the proteins and extract ATA. Samples were vortex mixed for 15 min and then centrifuged for 10 min at 14,000 rpm at 4°C. The deproteinized supernatant was recovered and analyzed immediately by RP-HPLC.
The concentration of ATA in plasma or whole blood was measured by RP-HPLC analysis as described above. The standard stock solution of ATA was added into the plasma or blood at different concentrations and subjected to sample pretreatment. The calibration graphs were based on linear regression analysis of the peak-area of ATA versus the concentration of ATA [32–36]. The extraction recoveries of ATA from rat plasma were determined at the concentrations of 0.0005, 0.01, and 50 μg/mL and from rat blood at the concentrations of 0.1, 5, and 100 μg/mL, using five replicates. The precision and accuracy of the method were examined at three concentrations of samples. The intra-day precisions were evaluated by analyzing five replicate samples in one day. The analysis was performed on five consecutive days for the inter-day precision.

ER+ breast cancer cells = conditions: compared with tamoxifen; ref [23]; cited from earlier work
ER [4] = conditions: ref [23]; cited from earlier work
ER [5] = conditions: ref [23]; cited from earlier work; remark: listed apart in the source
GREB1 = conditions: ref [23]; cited from earlier work
[6] = set-up: method as in our previous study in rats; conditions: rats; ref our previous study in rats; cited from earlier work
[7] = rat whole blood, single i.v. 8 mg/kg
[8] = rat whole blood, single i.v. 8 mg/kg, two-chamber model

Procedure for zebrafish embryos: as §3
Male and female zebrafish were bred in separate tanks. […] After mating, the selected embryos were collected at 4 hpf and placed in 96-well plates. […] In brief, these embryos were placed in glass petri dishes containing of fresh water (25 mL) with pronase (50 μL; 50 mg/mL) for 4-5 min.
Throughout the experiment, incubation solutions with freshly added ATA were replaced daily. Images of the zebrafish were captured in order to document any morphological changes. […] Twenty zebrafish were used in each experimental group and the zebrafish experiments were conducted at least four times.

Structure (SMILES): CC(=O)Oc1c(OC(C)=O)c2c(C)coc2c2ccc3c(c12)CCCC3(C)C [Free ATA, acetyltanshinone IIA]
- ATA released (Drug release by dialysis): 50%
- reduction of viability of MCF-7 cells ([1]; 48 and 72 h): ~100%
- reduction of viability of MCF-7 cells ([1]; 24 h): approximately 90%
- IC50 ([1]; MCF-7, 24 h): 2620 nM
- IC50 ([1]; MCF-7, 48 h): 1720 nM
- IC50 ([1]; MCF-7, 72 h): 1060 nM
- 24 h-IC50 in HUVEC cells relative to MCF-7 cells ([2]; 24 h, HUVEC vs MCF-7): 7.4 fold
- IC50 ([2]; 24 h): 19300 nM
- IC50 ([2]; 48 h): 6670 nM
- IC50 ([2]; 72 h): 2050 nM
- heartbeats (zebrafish larvae): 120 bpm
- MRT ([3]; female, SD, iv, rat whole blood, single i.v. 8 mg/kg, statistical moment analysis, read-out: MRT (mean retention time) (converted)): 15.9 min
- AUC(0-inf) ([3]; female, SD, iv, rat whole blood, single i.v. 8 mg/kg, two-chamber model): 0.514 µM·h
- AUC(0-t) ([3]; female, SD, iv, rat whole blood, single i.v. 8 mg/kg, two-chamber model, read-out: AUC0-24h (converted)): 0.509 µM·h
- C0 ([3]; female, SD, iv, rat whole blood, single i.v. 8 mg/kg, two-chamber model, read-out: C0 (initial concentration)): 4.06 µM
- half-life ([3]; female, SD, iv, rat whole blood, single i.v. 8 mg/kg, two-chamber model, read-out: t1/2 alpha (distribution half-life)): 3.55 min
- half-life ([3]; female, SD, iv, rat whole blood, single i.v. 8 mg/kg, two-chamber model, read-out: t1/2 beta (elimination half-life)): 22.8 min
- ATA concentration in plasma ([3]; rat plasma, i.v. 8 mg/kg, both forms): too low to be detected after 15 min
- time until the blood concentration of ATA was reduced to 0.5 μM ([3]; rat whole blood, i.v. 8 mg/kg): 12 min
- decline of blood ATA concentration ([3]; rat whole blood, i.v. 8 mg/kg, 240-min test): declined rapidly, and reached a very low level after 30 min
- AUMC (area under the first moment curve) [3, 7]: 490.97 μM·min^2
- Vss (steady state volume of distribution) [3, 7]: 4.12 mg/kg/µM
- CL2 (clearance between central and peripheral compartment) [3, 8]: 0.10 (mg/kg)/μM/min
- CL (clearance) [3, 8]: 0.26 (mg/kg)/μM/min
- V2 (compartment volume of distribution) [3, 8]: 2.15 (mg/kg)/μM
- V (apparent volume of distribution) [3, 8]: 1.97 (mg/kg)/μM
- k10 (elimination rate) [3, 8]: 0.13 min⁻¹
- k12 (inter-compartment rate) [3, 8]: 0.05 min⁻¹
- k21 (intra-compartment rate) [3, 8]: 0.05 min⁻¹
- Deformity and mortality rate (%) (total) (zebrafish embryos; 2.5 μM, 96 hpf): 40%
- Mortality rate (%) (zebrafish embryos; 5 μM, 96 hpf): 70%
- Mortality rate (%) (zebrafish embryos; 10 μM, 96 hpf): 100%
- Mortality rate (%) (zebrafish embryos; 20 μM, 96 hpf): 100%
- dosages that caused deformity or mortality in zebrafish larvae (zebrafish embryos; 96 hpf): higher than 1 μM
- Deformity rate (%) (zebrafish embryos; zebrafish, in vivo): 20%
- growth inhibition of ER+ breast cancer cells (ER+ breast cancer cells): stronger growth inhibition of ER+ breast cancer cells than tamoxifen
- effect on ER protein (ER [4]): completely abolished the presence of ER
- expression of ER at the mRNA level (ER [5]): reduced the expression of ER at the mRNA level
- transcription of ER-responsive gene GREB1 (GREB1): reduced the transcription
- bioavailability [6]: low bioavailability

Structure (SMILES): C[C@]12CC[C@@H]3c4ccc(O)cc4C[C@@H](CCCCCCCCC[S+]([O-])CCCC(F)(F)C(F)(F)F)[C@H]3[C@@H]1CC[C@@H]2O (some centres unmarked) [fulvestrant, reference compound]
- effect on ER protein (ER [4]): only reduced the protein level
